In US8895585B2, “Nicotinamide derivative or salt thereof” (FUJIFILM Corporation, priority 2010, dated 2014):

Tests used:
THP-1 cells = test: TNFα generation assay; type: cell-based, human; conditions: Homo sapiens, THP-1, THP-1 cells; Table 22; read-out: IC50 in TNFα generation assay
How it was run: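 THP-1 cells differentiated to macrophage-like cells with 10 ng/ml IFN-γ for 2 days, preincubated with compound 30 min at room temperature, then cultured 7 h on plates coated with human IgG (10 μg/ml). Secreted TNFα measured by ELISA or AlphaLISA.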

[1] = biological target: T1, glutathione S-transferase (GST)-fused full-length human Syk protein (Homo sapiens, UniProt P43405); test: Syk enzyme assay; type: biochemical; conditions: Syk enzyme assay, Test Example 1; read-out: IC50 of Syk-inhibitory activity
T1 construct: (GST)-fused full-length human Syk protein; GST (glutathione S-transferase); purchased Carna Biosciences
How it was run: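 GST-tagged full-length human Syk (baculovirus) preincubated with compound 15 min at room temperature (pH 7.0, 10 mM MgCl2), then reacted 40 min with 0.4 μM biotinylated peptide substrate and 27 μM ATP (final). Phosphorylation read by HTRF (615/665 nm) after EDTA stop; IC50 reported.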

| Compound | IC50 (THP-1 cells) [µM] | IC50 [1] [µM] |
| --- | --- | --- |
| COCCn1ncc2cc(Nc3nc(N[C@@H]4CCCC[C@@H]4N)c(F)cc3C(N)=O)ccc21 (relative stereo) [Example 004-091, 6-(cis-2-aminocyclohexylamino)-5-fluoro-2-((1-(2-methoxyethyl)-1H-indazol-5-yl)amino)-nicotinamide] | 0.065 to 0.13 | < 0.01 |
| NC(=O)c1cc(F)c(N[C@@H]2CCCC[C@@H]2N)nc1Nc1ccc2nn(CC3CC3)cc2c1 (relative stereo) [Example 004-093, 6-(cis-2-aminocyclohexylamino)-2-((2-(cyclopropylmethyl)-2H-indazol-5-yl)amino)-5-fluoronicotinamide] | 0.13 to 0.2 | < 0.01 |
| CCOCCOCCn1cc2cc(Nc3nc(N[C@@H]4CCCC[C@@H]4N)c(F)cc3C(N)=O)ccc2n1 (relative stereo) [Example 004-095, 6-(cis-2-aminocyclohexylamino)-2-((2-(2-(2-ethoxyethoxy)ethyl)-2H-indazol-5-yl)amino)-5-fluoronicotinamide] | 0.13 to 0.2 | < 0.01 |
| NC(=O)c1cc(F)c(N[C@@H]2CCCC[C@@H]2N)nc1Nc1cccnc1 (relative stereo) [Example 004-096, 6-(cis-2-aminocyclohexylamino)-5-fluoro-2-((pyridin-3-yl)amino)nicotinamide] | 0.065 to 0.13 | 0.01 to 0.05 |
| NC(=O)c1cc(F)c(N[C@@H]2CCCC[C@@H]2N)nc1Nc1cncc(Cl)c1 (relative stereo) [Example 004-097, 6-(cis-2-aminocyclohexylamino)-2-((5-chloropyridin-3-yl)amino)-5-fluoronicotinamide] | 0.065 to 0.13 | < 0.01 |
| NC(=O)c1cc(F)c(N[C@@H]2CCCC[C@@H]2N)nc1Nc1cncc(F)c1 (relative stereo) [Example 004-105, 6-(cis-2-aminocyclohexylamino)-5-fluoro-2-((5-fluoropyridin-3-yl)amino)nicotinamide] | 0.13 to 0.2 | 0.01 to 0.05 |
| COCCOc1cccc(-c2cncc(Nc3nc(N[C@@H]4CCCC[C@@H]4N)c(F)cc3C(N)=O)c2)c1 (relative stereo) [Example 004-109, 6-(cis-2-aminocyclohexylamino)-5-fluoro-2-((5-(3-(2-methoxyethoxy)phenyl)pyridin-3-yl)-amino)nicotinamide] | 0.13 to 0.2 | < 0.01 |
| COc1ccc(-c2cncc(Nc3nc(N[C@@H]4CCCC[C@@H]4N)c(F)cc3C(N)=O)c2)cc1 (relative stereo) [Example 004-114, 6-(cis-2-aminocyclohexylamino)-5-fluoro-2-((5-(4-methoxyphenyl)pyridin-3-yl)amino)-nicotinamide] | 0.065 to 0.13 | < 0.01 |

The remaining lines, values ahead:

| IC50 (THP-1 cells) [µM] | IC50 [1] [µM] | Compound |
| --- | --- | --- |
| 0.065 to 0.13 | < 0.01 | CCOCCOCCn1ncc2cc(Nc3nc(N[C@@H]4CCCC[C@@H]4N)c(F)cc3C(N)=O)ccc21 (relative stereo) [Example 004-092, 6-(cis-2-aminocyclohexylamino)-2-((1-(2-(2-ethoxyethoxy)ethyl)-1H-indazol-5-yl)amino)-5-fluoronicotinamide] |
| 0.13 to 0.2 | < 0.01 | COCCn1cc2cc(Nc3nc(N[C@@H]4CCCC[C@@H]4N)c(F)cc3C(N)=O)ccc2n1 (relative stereo) [Example 004-094, 6-(cis-2-aminocyclohexylamino)-5-fluoro-2-((2-(2-methoxyethyl)-2H-indazol-5-yl)amino)-nicotinamide] |
| 0.13 to 0.2 | < 0.01 | COc1cccc(-c2cncc(Nc3nc(N[C@@H]4CCCC[C@@H]4N)c(F)cc3C(N)=O)c2)c1 (relative stereo) [Example 004-113, 6-(cis-2-aminocyclohexylamino)-5-fluoro-2-((5-(3-methoxyphenyl)pyridin-3-yl)amino)-nicotinamide] |
| 0.13 to 0.2 | < 0.01 | Cn1c(F)cc2cc(Nc3nc(N[C@@H]4CCCC[C@@H]4N)c(F)cc3C(N)=O)ccc21 (relative stereo) [Example 004-117, 6-(cis-2-aminocyclohexylamino)-5-fluoro-2-((2-fluoro-1-methyl-1H-indol-5-yl)amino)-nicotinamide] |
